Experiments:
Assay in all cases: Test D controlled growth environment herbicide test, pre- and postemergence
Type in all cases: in vivo
[1] = system: Russian thistle (Salsola kali)
In short: (§1)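 Rating is visual, 0–100 scale (100 = complete control), made against untreated plants 14–21 d after treatment in controlled growth conditions. Postemergence sprays went onto 1- to 4-leaf plants in peat medium; preemergence sprays onto silt loam after sowing; formulation included a surfactant.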

[2] = system: galium (catchweed bedstraw, Galium aparine)
In short: as §1

[3] = system: windgrass (Apera spica-venti)
In short: as §1

[4] = system: radish, wild (wild radish, Raphanus raphanistrum)
In short: as §1

[5] = system: pigweed (Amaranthus retroflexus)
In short: as §1

[6] = system: barley, winter (winter barley, Hordeum vulgare)
In short: as §1

kochia (Kochia scoparia) = system: kochia (Kochia scoparia)
In short: as §1

[7] = system: canarygrass (Phalaris minor)
In short: as §1

[8] = system: chickweed (common chickweed, Stellaria media)
In short: as §1

[9] = system: buckwheat, wild (wild buckwheat, Polygonum convolvulus)
In short: as §1

[10] = system: field violet (Viola arvensis)
In short: as §1

[11] = system: bromegrass, downy (downy bromegrass, Bromus tectorum)
In short: as §1

[12] = system: oat, wild (wild oat, Avena fatua)
In short: as §1

[13] = Postemergence, 31 g ai/ha, scale 0 to 100 (0 no effect, 100 complete control)
[14] = Postemergence, 125 g ai/ha, visual rating on scale 0 (no effect) to 100 (complete control), 14 to 21 d
[15] = Postemergence, 250 g ai/ha, scale 0 to 100 (0 no effect, 100 complete control)
[16] = Preemergence, 62 g ai/ha, scale 0 to 100 (0 no effect, 100 complete control)
[17] = Preemergence, 125 g ai/ha, scale 0 to 100 (0 no effect, 100 complete control)
[18] = Preemergence, 250 g ai/ha, scale 0 to 100 (0 no effect, 100 complete control)
[19] = postemergence, 62 g ai/ha, scale 0 to 100, 0 no effect, 100 complete control

Cc1ccc2ccc(C)c(-c3c(O)c(C)nn(C)c3=O)c2c1 [Compound 60]
Russian Thistle plant response rating [1, 13]: 80 | Plant response rating, Russian Thistle [1, 14]: 80 | Plant response rating, Russian Thistle [1, 15]: 85 | Plant response rating (scale of 0 to 100), Russian Thistle ([1]; Preemergence, 31 g ai/ha): 15 | Plant response rating, Russian Thistle [1, 16]: 20 | Plant response rating, Russian Thistle [1, 17]: 35 | Plant response rating, Russian Thistle [1, 18]: 70 | Plant response rating, Russian Thistle [1, 19]: 80 | Galium plant response rating [2, 13]: 100 | Plant response rating, Galium [2, 14]: 100 | Plant response rating, Galium [2, 15]: 100 | Plant response rating (scale of 0 to 100), Galium ([2]; Preemergence, 31 g ai/ha): 75 | Plant response rating, Galium [2, 16]: 85 | Plant response rating, Galium [2, 17]: 95 | Plant response rating, Galium [2, 18]: 100 | Plant response rating, Galium [2, 19]: 100 | Windgrass plant response rating [3, 13]: 80 | Plant response rating, Windgrass [3, 14]: 90 | Plant response rating, Windgrass [3, 15]: 98 | Plant response rating (scale of 0 to 100), Windgrass ([3]; Preemergence, 31 g ai/ha): 85 | Plant response rating, Windgrass [3, 16]: 90 | Plant response rating, Windgrass [3, 17]: 100 | Plant response rating, Windgrass [3, 18]: 100 | Plant response rating, Windgrass [3, 19]: 85 | Radish, Wild plant response rating [4, 13]: 65 | Plant response rating, Radish, Wild [4, 14]: 95 | Plant response rating, Radish, Wild [4, 15]: 95 | Plant response rating (scale of 0 to 100), Radish, Wild ([4]; Preemergence, 31 g ai/ha): 55 | Plant response rating, Radish, Wild [4, 16]: 90 | Plant response rating, Radish, Wild [4, 17]: 95 | Plant response rating, Radish, Wild [4, 18]: 90 | Plant response rating, Radish, Wild [4, 19]: 75 | Pigweed plant response rating [5, 13]: 75 | Plant response rating, Pigweed [5, 14]: 100 | Plant response rating, Pigweed [5, 15]: 100 | Plant response rating (scale of 0 to 100), Pigweed ([5]; Preemergence, 31 g ai/ha): 100 | Plant response rating, Pigweed [5, 16]: 100 | Plant response rating, Pigweed [5, 17]: 100 | Plant response rating, Pigweed [5, 18]: 100 | Plant response rating, Pigweed [5, 19]: 95 | Barley, Winter plant response rating [6, 13]: 10 | Plant response rating, Barley, Winter [6, 14]: 40 | Plant response rating, Barley, Winter [6, 15]: 50 | Plant response rating (scale of 0 to 100), Barley, Winter ([6]; Preemergence, 31 g ai/ha): 15 | Plant response rating, Barley, Winter [6, 16]: 30 | Plant response rating, Barley, Winter [6, 17]: 50 | Plant response rating, Barley, Winter [6, 18]: 65 | Plant response rating, Barley, Winter [6, 19]: 25 | Kochia plant response rating (kochia (Kochia scoparia); [13]): 70 | Plant response rating, Kochia (kochia (Kochia scoparia); [14]): 90 | Plant response rating, Kochia (kochia (Kochia scoparia); [15]): 95 | Plant response rating (scale of 0 to 100), Kochia (kochia (Kochia scoparia); Preemergence, 31 g ai/ha): 15 | Plant response rating, Kochia (kochia (Kochia scoparia); [16]): 20 | Plant response rating, Kochia (kochia (Kochia scoparia); [17]): 60 | Plant response rating, Kochia (kochia (Kochia scoparia); [18]): 75 | Plant response rating, Kochia (kochia (Kochia scoparia); [19]): 85 | Canarygrass plant response rating [7, 13]: 80 | Plant response rating, Canarygrass [7, 14]: 85 | Plant response rating, Canarygrass [7, 15]: 90 | Plant response rating (scale of 0 to 100), Canarygrass ([7]; Preemergence, 31 g ai/ha): 90 | Plant response rating, Canarygrass [7, 16]: 95 | Plant response rating, Canarygrass [7, 17]: 95 | Plant response rating, Canarygrass [7, 18]: 100 | Plant response rating, Canarygrass [7, 19]: 80 | Chickweed plant response rating [8, 13]: 85 | Plant response rating, Chickweed [8, 14]: 100 | Plant response rating, Chickweed [8, 15]: 100 | Plant response rating (scale of 0 to 100), Chickweed ([8]; Preemergence, 31 g ai/ha): 95 | Plant response rating, Chickweed [8, 16]: 100 | Plant response rating, Chickweed [8, 17]: 100 | Plant response rating, Chickweed [8, 18]: 100 | Plant response rating, Chickweed [8, 19]: 100 | Buckwheat, Wild plant response rating [9, 13]: 90 | Plant response rating, Buckwheat, Wild [9, 14]: 100 | Plant response rating, Buckwheat, Wild [9, 15]: 100 | Plant response rating (scale of 0 to 100), Buckwheat, Wild ([9]; Preemergence, 31 g ai/ha): 0 | Plant response rating, Buckwheat, Wild [9, 16]: 25 | Plant response rating, Buckwheat, Wild [9, 17]: 50 | Plant response rating, Buckwheat, Wild [9, 18]: 60 | Plant response rating, Buckwheat, Wild [9, 19]: 95 | Field Violet plant response rating [10, 13]: 80 | Plant response rating, Field Violet [10, 14]: 100 | Plant response rating, Field Violet [10, 15]: 85 | Plant response rating (scale of 0 to 100), Field Violet ([10]; Preemergence, 31 g ai/ha): 95 | Plant response rating, Field Violet [10, 16]: 100 | Plant response rating, Field Violet [10, 17]: 100 | Plant response rating, Field Violet [10, 18]: 100 | Plant response rating, Field Violet [10, 19]: 95 | Bromegrass, Downy plant response rating [11, 13]: 30 | Plant response rating, Bromegrass, Downy [11, 14]: 65 | Plant response rating, Bromegrass, Downy [11, 15]: 80 | Plant response rating (scale of 0 to 100), Bromegrass, Downy ([11]; Preemergence, 31 g ai/ha): 60 | Plant response rating, Bromegrass, Downy [11, 16]: 90 | Plant response rating, Bromegrass, Downy [11, 17]: 95 | Plant response rating, Bromegrass, Downy [11, 18]: 98 | Plant response rating, Bromegrass, Downy [11, 19]: 55 | Oat, Wild plant response rating [12, 13]: 85 | Plant response rating, Oat, Wild [12, 14]: 95 | Plant response rating, Oat, Wild [12, 15]: 100 | Plant response rating (scale of 0 to 100), Oat, Wild ([12]; Preemergence, 31 g ai/ha): 90 | Plant response rating, Oat, Wild [12, 16]: 95 | Plant response rating, Oat, Wild [12, 17]: 100 | Plant response rating, Oat, Wild [12, 18]: 100 | Plant response rating, Oat, Wild [12, 19]: 90

From patent US10597388B2, “Pyridazinone herbicides” (FMC CORPORATION, priority 2014, dated 2020)
